pIC50: −log10 of the molar value.

The nature of the assay: Inhibitory activity against class A TEM-1 beta-lactamase.
In turn, `O=C(/C=C/C1=C(C(=O)O)N2C(=O)/C(=C/c3ccccn3)[C@H]2S(=O)(=O)C1)NCc1ccccc1` [Sodium; (R)-3-((E)-2-benzylcarbamoyl-vinyl)-5,5,8-trioxo-7-[1-pyridin-2-yl-meth-(Z)-ylidene]-5lambda*6*-thia-1-aza-bicyclo[4.2.0]oct-2-ene-2-carboxylate] showed a pIC50 of 5.85.
To `O=C(/C=C/C1=C(C(=O)O)N2C(=O)/C(=C/c3ccccn3)[C@H]2S(=O)(=O)C1)NCC(F)(F)F` [Sodium; (R)-5,5,8-trioxo-7-[1-pyridin-2-yl-meth-(Z)-ylidene]-3-[(E)-2-(2,2,2-trifluoro-ethylcarbamoyl)-vinyl]-5lambda*6*-thia-1-aza-bicyclo[4.2.0]oct-2-ene-2-carboxylate] belongs 7.11; to `O=C(/C=C/C1=C(C(=O)O)N2C(=O)/C(=C/c3ccccn3)[C@H]2S(=O)(=O)C1)Nc1c(F)c(F)c(F)c(F)c1F` [Sodium; (R)-5,5,8-trioxo-3-((E)-2-pentafluorophenylcarbamoyl-vinyl)-7-[1-pyridin-2-yl-meth-(Z)-ylidene]-5lambda*6*-thia-1-aza-bicyclo[4.2.0]oct-2-ene-2-carboxylate], 5.37; to `NNC(=O)/C=C/C1=C(C(=O)O)N2C(=O)/C(=C/c3ccccn3)[C@H]2S(=O)(=O)C1` [Sodium; (R)-3-((E)-2-hydrazinocarbonyl-vinyl)-5,5,8-trioxo-7-[1-pyridin-2-yl-meth-(Z)-ylidene]-5lambda*6*-thia-1-aza-bicyclo[4.2.0]oct-2-ene-2-carboxylate], 6.41.
To `O=C(O)C1=C(F)CS(=O)(=O)[C@@H]2/C(=C\c3ccccn3)C(=O)N12` [Sodium; (R)-3-fluoro-5,5,8-trioxo-7-[1-pyridin-2-yl-meth-(Z)-ylidene]-5lambda*6*-thia-1-aza-bicyclo[4.2.0]oct-2-ene-2-carboxylate] belongs 5.74; to `CN1CCN(C(=O)/C=C/C2=C(C(=O)O)N3C(=O)/C(=C/c4ccccn4)[C@H]3S(=O)(=O)C2)CC1` [Sodium; (R)-3-[(E)-3-(4-methyl-piperazin-1-yl)-3-oxo-propenyl]-5,5,8-trioxo-7-[1-pyridin-2-yl-meth-(Z)-ylidene]-5lambda*6*-thia-1-aza-bicyclo[4.2.0]oct-2-ene-2-carboxylate], 7.28.
For the molecule `O=C(O)C1=CCS(=O)(=O)[C@@H]2/C(=C\c3ccccn3)C(=O)N12` [Sodium; (R)-5,5,8-trioxo-7-[1-pyridin-2-yl-meth-(Z)-ylidene]-5lambda*6*-thia-1-aza-bicyclo[4.2.0]oct-2-ene-2-carboxylate], the pIC50 was 4.73.
To `O=C(O)C1=C(Cl)CS(=O)(=O)[C@@H]2/C(=C\c3ccccn3)C(=O)N12` [Sodium; (R)-3-chloro-5,5,8-trioxo-7-[1-pyridin-2-yl-meth-(Z)-ylidene]-5lambda*6*-thia-1-aza-bicyclo[4.2.0]oct-2-ene-2-carboxylate] belongs 5.74; to `O=C(/C=C/C1=C(C(=O)O)N2C(=O)/C(=C/c3ccccn3)[C@H]2S(=O)(=O)C1)Nc1ccc(O)cc1` [Sodium; (R)-3-[(E)-2-(4-hydroxy-phenylcarbamoyl)-vinyl]-5,5,8-trioxo-7-[1-pyridin-2-yl-meth-(Z)-ylidene]-5lambda*6*-thia-1-aza-bicyclo[4.2.0]oct-2-ene-2-carboxylate], 6.96; to `NCCCNC(=O)/C=C/C1=C(C(=O)O)N2C(=O)/C(=C/c3ccccn3)[C@H]2S(=O)(=O)C1` [Sodium; (R)-3-[(E)-2-(3-amino-propylcarbamoyl)-vinyl]-5,5,8-trioxo-7-[1-pyridin-2-yl-meth-(Z)-ylidene]-5lambda*6*-thia-1-aza-bicyclo[4.2.0]oct-2-ene-2-carboxylate], 5.80.
As to `O=C(O)C1=C(c2cccs2)CS(=O)(=O)[C@@H]2/C(=C\c3ccccn3)C(=O)N12` [Sodium; (R)-5,5,8-trioxo-7-[1-pyridin-2-yl-meth-(Z)-ylidene]-3-thiophen-2-yl-5lambda*6*-thia-1-aza-bicyclo[4.2.0]oct-2-ene-2-carboxylate], the pIC50 was 5.45.
To `CS(=O)(=O)C1=C(C(=O)O)N2C(=O)/C(=C/c3ccccn3)[C@H]2S(=O)(=O)C1` [Sodium; (R)-3-methanesulfonyl-5,5,8-trioxo-7-[1-pyridin-2-yl-meth-(Z)-ylidene]-5lambda*6*-thia-1-aza-bicyclo[4.2.0]oct-2-ene-2-carboxylate] belongs 8.12.
`NC(=O)/C=C/C1=C(C(=O)O)N2C(=O)/C(=C/c3ccccn3)[C@H]2S(=O)(=O)C1` [Sodium; (R)-3-((E)-2-carbamoyl-vinyl)-5,5,8-trioxo-7-[1-pyridin-2-yl-meth-(Z)-ylidene]-5lambda*6*-thia-1-aza-bicyclo[4.2.0]oct-2-ene-2-carboxylate] showed a pIC50 of 6.58.
The same measure for `O=C(O)C1=C(Br)CS(=O)(=O)[C@@H]2/C(=C\c3ccccn3)C(=O)N12` [Sodium; (R)-3-bromo-5,5,8-trioxo-7-[1-pyridin-2-yl-meth-(Z)-ylidene]-5lambda*6*-thia-1-aza-bicyclo[4.2.0]oct-2-ene-2-carboxylate]: 6.10.
The molecule `N=C(N)NCCNC(=O)C=CC1=C(C(=O)O)N2C(=O)C(=Cc3ccccn3)[C@H]2S(=O)(=O)C1` [Sodium; (R)-3-[(E)-2-(2-guanidino-ethylcarbamoyl)-vinyl]-5,5,8-trioxo-7-[1-pyridin-2-yl-meth-(Z)-ylidene]-5lambda*6*-thia-1-aza-bicyclo[4.2.0]oct-2-ene-2-carboxylate] had a pIC50 of 8.08.
The same measure for `O=C(O)C1=C(c2ccccc2)CS(=O)(=O)[C@@H]2/C(=C\c3ccccn3)C(=O)N12` [Sodium; (R)-5,5,8-trioxo-3-phenyl-7-[1-pyridin-2-yl-meth-(Z)-ylidene]-5lambda*6*-thia-1-aza-bicyclo[4.2.0]oct-2-ene-2-carboxylate]: 5.04; for `O=C(O)C1=C(C(=O)O)N2C(=O)/C(=C/c3ccccn3)[C@H]2S(=O)(=O)C1` [Disodium; (R)-3-carboxy-5,5,8-trioxo-7-[1-pyridin-2-yl-meth-(Z)-ylidene]-5lambda*6*-thia-1-aza-bicyclo[4.2.0]oct-2-ene-2-carboxylate]: 4.98; for `O=C(O)C1=C(I)CS(=O)(=O)[C@@H]2/C(=C\c3ccccn3)C(=O)N12` [Sodium; (R)-3-iodo-5,5,8-trioxo-7-[1-pyridin-2-yl-meth-(Z)-ylidene]-5lambda*6*-thia-1-aza-bicyclo[4.2.0]oct-2-ene-2-carboxylate]: 5.89.
To `O=C(O)C1=C(Sc2ccccc2)CS(=O)(=O)[C@@H]2/C(=C\c3ccccn3)C(=O)N12` [Sodium; (R)-5,5,8-trioxo-3-phenylsulfanyl-7-[1-pyridin-2-yl-meth-(Z)-ylidene]-5lambda*6*-thia-1-aza-bicyclo[4.2.0]oct-2-ene-2-carboxylate] belongs 7.92; to `O=C(/C=C/C1=C(C(=O)O)N2C(=O)/C(=C/c3ccccn3)[C@H]2S(=O)(=O)C1)NC1CC1` [Sodium; (R)-3-((E)-2-cyclopropylcarbamoyl-vinyl)-5,5,8-trioxo-7-[1-pyridin-2-yl-meth-(Z)-ylidene]-5lambda*6*-thia-1-aza-bicyclo[4.2.0]oct-2-ene-2-carboxylate], 6.62.
With `O=C(O)C1=C(S(=O)(=O)c2ccccc2)CS(=O)(=O)[C@@H]2/C(=C\c3ccccn3)C(=O)N12` [Sodium; (R)-3-benzenesulfonyl-5,5,8-trioxo-7-[1-pyridin-2-yl-meth-(Z)-ylidene]-5lambda*6*-thia-1-aza-bicyclo[4.2.0]oct-2-ene-2-carboxylate], the pIC50 is 8.03. Against the preceding molecule, the pIC50 is 1.41 log units higher.
The same measure for `O=C(/C=C/C1=C(C(=O)O)N2C(=O)/C(=C/c3ccccn3)[C@H]2S(=O)(=O)C1)NCCO` [Sodium; (R)-3-[(E)-2-(2-hydroxy-ethylcarbamoyl)-vinyl]-5,5,8-trioxo-7-[1-pyridin-2-yl-meth-(Z)-ylidene]-5lambda*6*-thia-1-aza-bicyclo[4.2.0]oct-2-ene-2-carboxylate]: 7.15; for `O=C(/C=C/C1=C(C(=O)O)N2C(=O)/C(=C/c3ccccn3)[C@H]2S(=O)(=O)C1)NO` [Sodium; (R)-3-((E)-2-hydroxycarbamoyl-vinyl)-5,5,8-trioxo-7-[1-pyridin-2-yl-meth-(Z)-ylidene]-5lambda*6*-thia-1-aza-bicyclo[4.2.0]oct-2-ene-2-carboxylate]: 5.11; for `CSC1=C(C(=O)O)N2C(=O)/C(=C/c3ccccn3)[C@H]2S(=O)(=O)C1` [Sodium; (R)-3-methylsulfanyl-5,5,8-trioxo-7-[1-pyridin-2-yl-meth-(Z)-ylidene]-5lambda*6*-thia-1-aza-bicyclo[4.2.0]oct-2-ene-2-carboxylate]: 5.97.

Usually pIC50 stands for −log10 of the IC50, conventionally taken in molar units. The low end stands for a large IC50, the high end for a small IC50.

These data come from BindingDB's records for doi:10.1016/s0960-894x(02)00205-6 (Southern Methodist University, 2002).
